Legend:
hMC1-R = molecular target: T1, hMC1-R (Homo sapiens, UniProt Q01726); experiment: Competitive inhibition binding assay using [I125]-NDP-α-MSH, HEK-293 membranes, recombinant hMC1-R; settings: human recombinant MC1-R; for inhibition at 1 µM: 1 μM compound
T1 construct: expressed in transfected cells; host or cells: HEK-293
Protocol: (§1) A competitive inhibition binding assay was performed using membrane homogenates prepared from HEK-293 cells that express recombinant hMC4-R, hMC3-R, or hMC5-R, and from B-16 mouse melanoma cells (containing endogenous MC1-R). In some instances, HEK-293 cells that express recombinant hMC1-R were employed. In the examples that follow, all MC3-R, MC4-R and MC5-R values are for human recombinant receptors. MC1-R values are for B-16 mouse melanoma cells, unless the heading is “hMC1-R”, in which case the value is for human recombinant MC1-R. Assays were performed in 96 well GF/B Millipore multiscreen filtration plates (MAFB NOB10) pre-coated with 0.5% bovine serum albumin (Fraction V). […] After incubation for 60 minutes at 37° C., the assay mixture was filtered and the membranes washed three times with ice-cold buffer. Filters were dried and counted in a gamma counter for bound radioactivity. […] Maximal specific binding (100%) was defined as the difference in radioactivity (cpm) bound to cell membranes in the absence and presence of 1 μM NDP-α-MSH. […] Each assay was conducted in triplicate and the actual mean values are described, with results less than 0% reported as 0%. Ki values for test compounds were determined using Graph-Pad Prism® curve-fitting software.

MC3-R = molecular target: T2, MC3-R (Homo sapiens, UniProt P41968); experiment: Competitive inhibition binding assay using [I125]-NDP-α-MSH, HEK-293 membranes, recombinant hMC3-R; settings: for inhibition at 1 µM: 1 μM compound
T2 construct: expressed in transfected cells; host or cells: HEK-293
Protocol: as §1

MC4-R = MC4-R (Homo sapiens, UniProt P32245); experiment: Competitive inhibition binding assay using [I125]-NDP-α-MSH, HEK-293 membranes, recombinant hMC4-R; parameters: expressed in transfected cells; host or cells: HEK-293; settings: for inhibition at 1 µM: 1 μM compound
Protocol: as §1

[1] = Mouse model IN feeding studies (body weight); assay type: in vivo; settings: 20 hours
Protocol: Food intake and body weight after IN and IP dosing. Changes in food intake and body weight were evaluated for selected compounds. Male C57BL/6 mice were obtained from Jackson labs (Bar Harbor, Me.). Animals were individually housed in conventional plexiglass hanging cages and maintained on a controlled 12 hour on/off light cycle. Water and pelleted (Harlan Teklad 2018 18% Protein Rodent Diet) food was provided ad libitum. The mice were dosed IP (by intraperitoneal injection) after a 24 hour fast or IN (by intranasal administration) with vehicle or selected compounds (0.1-3 mg/kg, and in some cases up to 10 mg/kg). All animals were dosed once a day (or up to four consecutive days) at the start of the “lights off” period. The changes in food intake for the 4 hour and 20 hour period after dosing relative to control animals administered vehicle were determined. Body weights were determine 4 hours prior to dosing and 20 hours after dosing, and the change in body weight relative to control animals administered vehicle were determined.

MC5-R = molecular target: T3, MC5-R (Homo sapiens, UniProt P33032); experiment: Competitive inhibition binding assay using [I125]-NDP-α-MSH, HEK-293 membranes, recombinant hMC5-R; settings: for inhibition at 1 µM: 1 μM compound
T3 construct: expressed in transfected cells; host or cells: HEK-293
Protocol: as §1

MC1-R = molecular target: T4, MC1-R (Mus musculus, UniProt Q01727); experiment: Competitive inhibition binding assay using [I125]-NDP-α-MSH, B-16 mouse melanoma cell membranes; settings: B-16 mouse melanoma cells; for inhibition at 1 µM: 1 μM compound
T4 construct: from B-16 mouse melanoma cells (containing endogenous MC1-R); endogenous in cells; host or cells: B-16 mouse melanoma cells (membrane homogenates)
Protocol: as §1

T1 sequence (Q01726 whole entry): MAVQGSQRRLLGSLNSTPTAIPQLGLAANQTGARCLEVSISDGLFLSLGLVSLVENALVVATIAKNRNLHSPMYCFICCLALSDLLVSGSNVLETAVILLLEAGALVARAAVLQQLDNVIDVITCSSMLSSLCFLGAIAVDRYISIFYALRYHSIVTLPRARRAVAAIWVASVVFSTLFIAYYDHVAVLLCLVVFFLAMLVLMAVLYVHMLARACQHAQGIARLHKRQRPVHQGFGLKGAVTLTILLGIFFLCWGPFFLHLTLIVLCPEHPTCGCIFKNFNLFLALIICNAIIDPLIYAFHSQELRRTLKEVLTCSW
T2 sequence (P41968 whole entry): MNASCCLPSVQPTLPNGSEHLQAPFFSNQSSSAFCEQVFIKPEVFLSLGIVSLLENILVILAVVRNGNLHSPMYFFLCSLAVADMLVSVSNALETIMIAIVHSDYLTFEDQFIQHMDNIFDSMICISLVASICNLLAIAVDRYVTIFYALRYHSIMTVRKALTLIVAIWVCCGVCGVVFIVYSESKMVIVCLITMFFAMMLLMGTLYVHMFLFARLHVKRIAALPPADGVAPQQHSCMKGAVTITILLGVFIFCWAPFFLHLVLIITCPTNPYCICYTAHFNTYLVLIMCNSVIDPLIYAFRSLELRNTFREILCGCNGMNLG
Sequence of MC4-R (P32245 whole entry): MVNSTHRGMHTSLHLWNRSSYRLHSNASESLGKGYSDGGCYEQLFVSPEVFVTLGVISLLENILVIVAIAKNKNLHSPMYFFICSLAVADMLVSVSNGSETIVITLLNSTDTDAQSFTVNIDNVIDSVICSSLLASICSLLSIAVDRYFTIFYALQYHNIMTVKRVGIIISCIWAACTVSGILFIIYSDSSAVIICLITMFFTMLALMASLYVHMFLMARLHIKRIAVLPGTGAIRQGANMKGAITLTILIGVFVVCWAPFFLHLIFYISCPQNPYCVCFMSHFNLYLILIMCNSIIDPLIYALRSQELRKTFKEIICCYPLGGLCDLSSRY
T3 sequence (P33032 whole entry): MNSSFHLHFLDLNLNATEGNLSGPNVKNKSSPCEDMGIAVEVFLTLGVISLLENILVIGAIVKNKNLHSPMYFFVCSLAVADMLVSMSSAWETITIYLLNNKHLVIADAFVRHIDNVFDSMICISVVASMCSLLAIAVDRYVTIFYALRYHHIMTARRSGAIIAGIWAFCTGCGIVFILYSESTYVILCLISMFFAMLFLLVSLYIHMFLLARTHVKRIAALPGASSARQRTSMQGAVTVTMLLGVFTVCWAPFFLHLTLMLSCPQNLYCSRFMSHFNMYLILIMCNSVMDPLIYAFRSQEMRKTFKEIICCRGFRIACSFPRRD
T4 sequence (Q01727 whole entry): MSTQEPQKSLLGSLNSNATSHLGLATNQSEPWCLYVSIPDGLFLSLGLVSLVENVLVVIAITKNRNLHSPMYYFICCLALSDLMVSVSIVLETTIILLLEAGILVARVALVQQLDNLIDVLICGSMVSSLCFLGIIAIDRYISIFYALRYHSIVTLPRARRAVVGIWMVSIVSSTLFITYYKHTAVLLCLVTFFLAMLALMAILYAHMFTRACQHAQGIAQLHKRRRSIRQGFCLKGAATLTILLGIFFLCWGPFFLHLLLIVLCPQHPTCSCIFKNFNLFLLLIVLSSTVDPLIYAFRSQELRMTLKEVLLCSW

## CC(C)C[C@@H]1CN(C(=O)[C@H](N)Cc2ccc(Cl)cc2Cl)[C@@H](CCCNCCN)CN1C(=O)[C@H](N)Cc1ccc(Cl)cc1Cl [Example 12, (R)-2-Amino-1-{(2R,5S)-4-[(R)-2-amino-3-(2,4-dichloro-phenyl)-propionyl]-5-[3-(2-amino-ethylamino)-propyl]-2-isobutyl-piperazin-1-yl}-3-(2,4-dichloro-phenyl)-propan-1-one]
hMC1-R
  inhibition at 1 µM: 23%
  Ki: 309 nM
MC3-R
  Ki: 574 nM
  inhibition at 1 µM: 41%
MC4-R
  Ki: 44 nM
  inhibition at 1 µM: 89%
[1]; 0.1 mg/kg
  average decrease in body weight compared to control animals: 0.7%
[1]; 0.3 mg/kg
  average decrease in body weight compared to control animals: 3.1%
MC5-R
  inhibition at 1 µM: 55%

## Cc1ccc(C[C@@H](N)CN2C[C@@H](C)N(C(=O)Cc3ccc4ccccc4c3)C[C@@H]2CCCNC2CCNC2)c(C)c1 (stereo partly drawn) [Example 5, 1-{(2R,5S)-4-[(R)-2-Amino-3-(2,4-dimethyl-phenyl)-propyl]-2-methyl-5-[3-(pyrrolidin-3-ylamino)-propyl]-piperazin-1-yl}-2-naphthalen-2-yl-ethanone]
MC1-R
  inhibition at 1 µM: 41%
  Ki: 685 nM
MC3-R
  Ki: 395 nM
  inhibition at 1 µM: 75%
MC4-R
  Ki: 387 nM
  inhibition at 1 µM: 81%
MC5-R
  Ki: 31 nM
  inhibition at 1 µM: 96%

## Cc1ccc(C[C@H](CN2C[C@@H](C)N(C(=O)Cc3ccc4ccccc4c3)C[C@@H]2CCCN2CCN(C)CC2)N(C)C)c(C)c1 [Example 10, 1-{(2R,5S)-4-[(R)-2-Dimethylamino-3-(2,4-dimethyl-phenyl)-propyl]-2-methyl-5-[3-(4-methyl-piperazin-1-yl)-propyl]-piperazin-1-yl}-2-naphthalen-2-I-ethanone]
MC1-R
  inhibition at 1 µM: 28%
MC3-R
  inhibition at 1 µM: 15%
MC4-R
  inhibition at 1 µM: 47%
MC5-R
  inhibition at 1 µM: 54%

## CC(C)C[C@@H]1CN(C(=O)[C@H](N)Cc2ccc3ccccc3c2)[C@@H](CCCNCCN)CN1C(=O)[C@H](N)Cc1ccc2ccccc2c1 [Example 13, (R)-2-Amino-1-[(2R,5S)-5-[3-(2-amino-ethylamino)-propyl]-4-((R)-2-amino-3-naphthalen-2-yl-propionyl)-2-isobutyl-piperazin-1-yl]-3-naphthalen-2-yl-propan-1-one]
hMC1-R
  inhibition at 1 µM: 40%
  Ki: 135 nM
MC3-R
  Ki: 127 nM
  inhibition at 1 µM: 79%
MC4-R
  Ki: 13 nM
  inhibition at 1 µM: 96%
[1]; 0.1 mg/kg
  average decrease in body weight compared to control animals: 1%
[1]; 0.3 mg/kg
  average decrease in body weight compared to control animals: 3%
[1]; 1 mg/kg
  average decrease in body weight compared to control animals: 3.2%
MC5-R
  inhibition at 1 µM: 57%

## CC(C)C[C@@H]1CN(C(=O)[C@H](N)Cc2ccc(Cl)c(Cl)c2)[C@@H](CCCCNCCN)CN1C(=O)[C@H](N)Cc1ccc(Cl)c(Cl)c1 [Example 22, (R)-2-Amino-1-{(2R,5S)-4-[(R)-2-amino-3-(3,4-dichloro-phenyl)-propionyl]-5-[4-(2-amino-ethylamino)-butyl]-2-isobutyl-piperazin-1-yl}-3-(3,4-dichloro-phenyl)-propan-1-one]
hMC1-R
  Ki: 116 nM
MC3-R
  Ki: 69 nM
MC4-R
  Ki: 4 nM
[1]; 0.1 mg/kg
  average decrease in body weight compared to control animals: 0.6%
[1]; 0.3 mg/kg
  average decrease in body weight compared to control animals: 4.9%
MC5-R
  Ki: 179 nM

## Cc1ccc(C[C@@H](N)CN2C[C@@H](C)N(C(=O)Cc3ccc4ccccc4c3)C[C@@H]2CCCNC2CCCCC2N)c(C)c1 (stereo partly drawn) [Example 6, 1-{(2R,5S)-5-[3-(2-Amino-cyclohexylamino)-propyl]-4-[(R)-2-amino-3-(2,4-dimethyl-phenyl)-propyl]-2-methyl-piperazin-1-yl}-2-naphthalen-2-yl-ethanone]
MC1-R
  inhibition at 1 µM: 33%
  Ki: 580 nM
MC3-R
  Ki: 535 nM
  inhibition at 1 µM: 47%
MC4-R
  Ki: 255 nM
  inhibition at 1 µM: 88%
MC5-R
  Ki: 38 nM
  inhibition at 1 µM: 98%

## Cc1ccc(C[C@H](CN2C[C@@H](C)N(C(=O)Cc3ccc4ccccc4c3)C[C@@H]2CCCN(C)C2CCN(C)C2)N(C)C)c(C)c1 (stereo partly drawn) [Example 7, 1-((2R,5S)-4-[(R)-2-Dimethylamino-3-(2,4-dimethyl-phenyl)-propyl]-2-methyl-5-{3-[methyl-(1-methyl-pyrrolidin-3-yl)-amino]-propyl}-piperazin-1-yl)-2-aphthalen-2-yl-ethanone]
MC1-R
  inhibition at 1 µM: 4%
MC3-R
  inhibition at 1 µM: 0%
MC4-R
  inhibition at 1 µM: 56%
MC5-R
  inhibition at 1 µM: 44%

## Cc1ccc(C[C@H](CN2C[C@@H](C)N(C(=O)Cc3ccc4ccccc4c3)C[C@@H]2CCCN(C)CCN(C)C)N(C)C)c(C)c1 [Example 9, 1-((2R,5S)-4-[(R)-2-Dimethylamino-3-(2,4-dimethyl-phenyl)-propyl]-5-{3-[(2-dimethylamino-ethyl)-methyl-amino]-propyl}-2-methyl-piperazin-1-yl)-2-naphthalen-2-yl-ethaone]
MC1-R
  inhibition at 1 µM: 0%
MC3-R
  inhibition at 1 µM: 9%
MC4-R
  inhibition at 1 µM: 49%
MC5-R
  inhibition at 1 µM: 51%

## Cc1ccc(C[C@@H](N)CN2C[C@@H](C)N(C(=O)Cc3ccc4ccccc4c3)C[C@@H]2CCCN2CCNCC2)c(C)c1 [Example 4]
MC1-R
  inhibition at 1 µM: 12%
MC3-R
  inhibition at 1 µM: 43%
MC4-R
  inhibition at 1 µM: 55%
MC5-R
  inhibition at 1 µM: 97%

## CC(C)C[C@@H]1CN(C(=O)[C@H](N)Cc2ccc3ccccc3c2)[C@@H](CCCCNCCN)CN1C(=O)[C@H](N)Cc1ccc2ccccc2c1 [Example 20, (R)-2-Amino-1-[(2R,5S)-5[4-(2-amino-ethylamino)-butyl]-4-((R)-2-amino-3-naphthalen-2-yl-propionyl)-2-isobutyl-piperazin-1-yl]-3-naphthalen-2-yl-propan-1-one]
hMC1-R
  inhibition at 1 µM: 68%
  Ki: 215 nM
MC3-R
  Ki: 321 nM
  inhibition at 1 µM: 62%
MC4-R
  Ki: 9 nM
  inhibition at 1 µM: 99%
[1]; 0.1 mg/kg
  average decrease in body weight compared to control animals: 1.2%
[1]; 0.3 mg/kg
  average decrease in body weight compared to control animals: 3%
MC5-R
  Ki: 253 nM
  inhibition at 1 µM: 49%

## Cc1ccc(C[C@@H](N)CN2C[C@@H](C)N(C(=O)Cc3ccc4ccccc4c3)C[C@@H]2CCCNCCN)c(C)c1 [Example 3]
MC1-R
  inhibition at 1 µM: 41%
  Ki: 660 nM
MC3-R
  Ki: 320 nM
  inhibition at 1 µM: 82%
MC4-R
  Ki: 160 nM
  inhibition at 1 µM: 92%
MC5-R
  Ki: 20 nM
  inhibition at 1 µM: 94%

## NCCNCCCC[C@H]1CN(C(=O)[C@H](N)Cc2ccc3ccccc3c2)[C@H](CC2CCCCC2)CN1C(=O)[C@H](N)Cc1ccc2ccccc2c1 [Example 23, (R)-2-Amino-1-[(2R,5S)-5-[4-(2-amino-ethylamino)-butyl]-4-((R)-2-amino-3-naphthalen-2-yl-propionyl)-2-cyclohexylmethyl-piperazin-1-yl]-3-naphthalen-2-yl-propan-1-one]
hMC1-R
  Ki: 153 nM
MC3-R
  Ki: 435 nM
MC4-R
  Ki: 20 nM
[1]; 0.1 mg/kg
  average decrease in body weight compared to control animals: 1.6%
[1]; 0.3 mg/kg
  average decrease in body weight compared to control animals: 2.6%
MC5-R
  Ki: 103 nM

## Cc1ccc(C[C@H](CN2C[C@@H](C)N(C(=O)Cc3ccc4ccccc4c3)C[C@@H]2CCCN(C)C2CCCCC2N(C)C)N(C)C)c(C)c1 (stereo partly shown) [Example 8]
MC1-R
  inhibition at 1 µM: 26%
MC3-R
  inhibition at 1 µM: 28%
MC4-R
  inhibition at 1 µM: 52%
MC5-R
  inhibition at 1 µM: 48%

Source: patent publication US7968548B2, “Melanocortin receptor-specific piperazine compounds with diamine groups” (Palatin Technologies, Inc., priority 2005, dated 2011)
